Here are results for two compounds from patent publication US12251383B2, “Methods and compositions for KRAS inhibitors” (The Board of Regents of the University of Texas System, priority 2019, dated 2025).

“Also recorded” adds a separate entry of the source.

One experiment deals with KRAS^G12V. Briefly: Cell signaling (Western) in BHK cells expressing KRAS G12V. It is filed as cell-based, hamster. The method, then:
Cell signaling. The inhibitory potential of compounds was tested in monoclonal Baby Hamster Kidney (BHK) cell lines stably expressing monomeric green fluorescence protein (mGFP)-tagged KRAS^G12D, K-Ras^G12V and HRAS^G12V. Cells were cultured in Dulbecco's Modified Eagle Medium (DMEM, Hyclone) supplemented with 10% v/v bovine calf serum and incubated with compound or vehicle (DMSO) for 3 h without serum. Cells were then harvested in lysis buffer (50 mM Tris (pH 7.5), 75 mM NaCl, 25 mM NaF, 5 mM MgCl2, 5 mM EGTA, 1 mM dithiothreitol, 100 μM NaVO4, 1% Nonidet P40 plus protease inhibitors) and subjected to Western analysis controlling protein loading by BCA (bicinchoninic acid) assay. Lysates were resolved with Bio-Rad polyacrylamide TGX 10% gel, transferred to polyvinylidene fluoride (PVDF) membrane and immunoblotted using pan-AKT (2920S), GFP (2956S), pAKT^S473 (4060L), p-cRaf^S338 (9427S), p-ERK^T202/Y204 (4370L), ERK1/2 (4695S) or β-actin antibodies (Cell Signaling Technology). IC50 values were calculated with Prism 4-parameter fit.

The target of a further experiment is KRAS (Homo sapiens, UniProt P01116). Briefly: Nucleotide release assay (intrinsic and SOS-mediated). The class given is biochemical. The method, then:
(FIG. 6A) Chemical structure of compound 13, an analogue of 11 without a benzene on the pyrimidine core. (FIG. 6B) Predicted binding pose of compound 13. […] See legend of FIGS. 2A-2C for additional details. […] (FIG. 6D) Fluorescence polarization of ^BGTP-γ-SKRAS (0.5 μM) with increasing concentration of GST-Raf^RBD in the absence (red) and presence (green) of 20 μM compound 13. (FIG. 6E) Level of GFP-KRAS^G12D pulled down by GST-Raf^RBD after treatment of whole cell lysates with 10 μM of compound 13 (representative Western blots are shown at the top). The RBD sequence length was 1-149 in the fluorescence polarization assay (FIG. 6D) and 51-131 in the pull-down assay (FIG. 6E). (FIG. 6F) Intrinsic (red) and SOS-mediated (blue) nucleotide release rates were determined. Briefly, fluorescence intensity data obtained in a mixture of 0.5 μM KRAS (and SOS), 100 μM GTP and 0 or 50 μM of compound 13 (top), derived from the changes in during the reaction KRAS^BGDP+GTP→KRAS^GTP+BGDP (bottom). Rates were calculated using single exponential fits starting from 120 s, and are show in the inset to the right of the graph.
Nucleotide exchange and release assays. Loading of fluorescent-labeled GDP (BODIPY-GDP; BGDP from hereon) to KRAS was conducted following previous reports (23, 47), with minor modifications. Purified KRAS was buffer-exchanged in NAP-5 column (GE Life Sciences) in low Mg^2+ buffer (25 mM Tris pH 7.5, 50 mM NaCl, and 0.5 mM MgCl2). The eluate was incubated with 10-fold molar excess of BGDP (Life Technologies) in the presence of 5 mM EDTA and 1 mM DTT for 1.5 h at 20° C. in the dark. […] The concentration of ^BGDPKRAS was determined using Bradford assay and a BGDP standard curve. Then the effect of ligands on the intrinsic rate of nucleotide release was monitored using the decrease in fluorescence with time as BGDP dissociates from KRAS in a 100 μL reaction mixture (96-well plate) of 0.5 μM B^GDPKRAS, 100 μM GTP and varying concentrations of ligand (0 to 25 μM); GTP was added just before measurements. To measure the rate of SOS-mediated nucleotide release, 0.5 μM SOS (residues 564-1049, Cytoskeleton Inc) was added after adding GTP, and fluorescence was immediately read (excitation: 485 nm, emission: 510 nm) using Tecan Infinite M200 plate reader. Intrinsic and SOS-mediated nucleotide exchange rates were monitored with the fluorescence intensity increase of BGTP as it displaces GDP from KRAS. […] Experiments were conducted with minimal light and the reaction was monitored for 2 h at room temperature. Fluorescence intensities were normalized at 120 s and the traces were fit with linear or single exponential functions (Igor Pro, Wavemetrics).
The effect of compound 11 on intrinsic and GEF-dependent nucleotide release and exchange reactions was determined. […]

KRAS, sequence (P01116 1-188 isoform P01116-2): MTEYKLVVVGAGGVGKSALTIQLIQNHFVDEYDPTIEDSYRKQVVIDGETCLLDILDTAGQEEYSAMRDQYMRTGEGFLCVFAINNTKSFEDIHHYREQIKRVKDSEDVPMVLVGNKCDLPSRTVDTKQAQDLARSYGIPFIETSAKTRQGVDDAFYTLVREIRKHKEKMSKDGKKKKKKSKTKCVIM

Regarding `Cc1nn2c(N3CCN(CCO)CC3)cc(-c3ccccc3)nc2c1-c1ccccc1` [Compound 11, 2-[4-(8-methyl-3,9-diphenyl-2,6,7-triazabicyclo[4.3.0]nona-2,4,7,9-tetraen-5-yl)piperazin-1-yl]ethanol], in the experiment with KRAS^G12V, the “effect on p-ERK levels” value is listed as “dose-dependently reduced; also recorded: dose-dependently decreases” and the “effect on p-cRaf levels” value was “dose-dependently reduced; also recorded: dose-dependently decreases”. On KRAS, the “effect on SOS-mediated nucleotide release rate” value is recorded as “slightly reduced; also recorded: only modestly decreased” and the “effect on intrinsic nucleotide release rate” value was “no effect”.
For the compound `Cc1cc(N2CCN(CCO)CC2)n2nc(C)c(-c3ccccc3)c2n1` [Compound 13], at KRAS (50 μM compound), the “effect on SOS-mediated nucleotide release rate” value is recorded as “dramatically increased” and the “effect on intrinsic nucleotide release rate” value is reported as “dramatically increased”.
